Data as given in ChEMBL document CHEMBL4477158, “Constituents of Fagraea fragrans with Antimycobacterial Activity in Combination with Erythromycin” (2016).

Assays:
Format in all cases: functional
[1] = test system: Mycolicibacterium smegmatis; test: Potentiation of kanamycin-induced antimycobacterial activity against Mycobacterium smegmatis assessed as kanamycin MIC90 at 25 ug/ml after 48 hrs by resazurin microplate assay (reference value: 2.5 ug/ml)
[2] = test system: Mycolicibacterium smegmatis; test: Potentiation of vancomycin-induced antimycobacterial activity against Mycobacterium smegmatis assessed as vancomycin MIC90 at 25 ug/ml after 48 hrs by resazurin microplate assay (reference value: 0.5 ug/ml)
[3] = test system: Mycolicibacterium smegmatis; test: Potentiation of isoniazid-induced antimycobacterial activity against Mycobacterium smegmatis assessed as isoniazid MIC90 at 25 ug/ml after 48 hrs by resazurin microplate assay (reference value: 200 ug/ml)
[4] = test system: Mycolicibacterium smegmatis; test: Potentiation of erythromycin-induced antimycobacterial activity against Mycobacterium smegmatis assessed as reduction in erythromycin MIC90 at 25 ug/ml after 48 hrs by resazurin microplate assay relative to control
[5] = test system: Mycolicibacterium smegmatis; test: Antimycobacterial activity against Mycobacterium smegmatis incubated for 48 hrs by resazurin microplate assay
[6] = test system: Mycolicibacterium smegmatis; test: Potentiation of erythromycin-induced antimycobacterial activity against Mycobacterium smegmatis assessed as erythromycin MIC90 at 25 ug/ml after 48 hrs by resazurin microplate assay (reference value: 10 ug/ml)
[7] = test system: Mycolicibacterium smegmatis; test: Potentiation of rifampicin-induced antimycobacterial activity against Mycobacterium smegmatis assessed as rifampicin MIC90 at 25 ug/ml after 48 hrs by resazurin microplate assay (reference value: 8 ug/ml)
[8] = test system: Staphylococcus aureus; test: Antibacterial activity against Staphylococcus aureus incubated for 16 to 18 hrs by broth microdilution assay
[9] = test system: Mycolicibacterium smegmatis; test: Potentiation of streptomycin-induced antimycobacterial activity against Mycobacterium smegmatis assessed as streptomycin MIC90 at 25 ug/ml after 48 hrs by resazurin microplate assay (reference value: 0.25 ug/ml)
[10] = test system: Escherichia coli; test: Antibacterial activity against Escherichia coli incubated for 16 to 18 hrs by broth microdilution assay

Compound	MIC90 [1] [µg/mL]	MIC90 [2] [µg/mL]	MIC90 [3] [µg/mL]	MIC90 [5] [µg/mL]	MIC90 [6] [µg/mL]	MIC90 [7] [µg/mL]	MIC [8] [µg/mL]	MIC90 [9] [µg/mL]	MIC [10] [µg/mL]	fold change (FC) [4]
O=Cc1cccc2c(=O)occc12	1	2.5	100	> 25	1.25	8	> 128	0.125	> 128	8
C[C@@H]1Cc2cccc(O)c2C(=O)O1 [(-)-(R)-MELLEIN]	1	2.5	100	> 25	0.625	8	> 128	0.125	> 128	16
O=Cc1cccc2c1[C@H]1[C@@H]3OC(=O)c4cccc(C=O)c4[C@@H]3[C@H]1OC2=O				> 25			> 128		> 128	
C/C=C1\COC(OC)C2=C1CCOC2=O (centres undefined)				> 25			> 128		> 128	
COc1cc(/C=C/C(=O)OCCCCCCCCCCCCCCCCCCCCCCCCCCCCCC=O)ccc1O	1	2.5	100	> 25	2.5	8	> 128	0.125	> 128	

Now from value to compound, other results behind:

MIC90 [1] [µg/mL]	MIC90 [2] [µg/mL]	MIC90 [3] [µg/mL]	MIC90 [5] [µg/mL]	MIC90 [6] [µg/mL]	MIC90 [7] [µg/mL]	MIC [8] [µg/mL]	MIC90 [9] [µg/mL]	MIC [10] [µg/mL]	Compound	fold change (FC) [4]
			> 25			> 128		> 128	C[C@@H]1OCC2=C(CCOC2=O)[C@@H]1CO	
			> 25			> 128		> 128	C[C@@H]1OC=C2C(=O)OCC[C@H]2[C@@H]1C(=O)O	
			> 25			> 128		> 128	C[C@H]1[C@@H]2C(=O)OCC[C@@H]2C[C@H]1O	
1	0.125	100	> 25	1.25	8	> 128	0.125	> 128	C[C@@H]1OCC2=C(CCOC2=O)[C@H]1CO	8
